We go through 1 molecule from patent publication US20030186281A1, “Modified tetracycline repressor protein compositions and methods of use” (priority 2001, published 2003).

This experiment has as its system tet operator sequence. In words: β-galactosidase activity of a tetracycline-regulated promoter in transformed E. coli with revTetR, in the presence and absence of anhydrotetracycline (atc). The experiment is classed as cell-based, Escherichia coli. To be noted: FIG. 2. Here is the method:
The relative activity of revTetR repressors was determined at 28° C. and 37° C. for each clone by measuring β-galactosidase activity of a tetracycline-regulated promoter in transformed Escherichia coli in the presence and absence of the tetracycline analog, anhydrotetracycline (atc). The relative β-galactosidase activity was measured in standard Miller units and is presented as the percent of maximal expression as measured in the absence of Tet repressor. […] With respect to each mutant, as well as the wild-type controls, FIG. 2 provides two horizontal bars; the upper horizontal bar represents the level of β-galactosidase activity in the absence of anhydrotetracycline (−atc) while the lower horizontal bar represents the level of β-galactosidase activity in the presence of anhydrotetracycline (+atc). […]
The ability of each revTetR clone to bind to its cognate tet operator sequence and regulate transcription in a prokaryotic organism, Escherichia coli, in the presence and absence of a tetracycline analog (anhydrotetracycline, atc) was determined (Table 3, FIG. 2). […]

For `Cc1c2c(c(O)c3c(O)cccc13)C(=O)[C@]1(O)C(=O)C(C(N)=O)=C(O)[C@@H](N(C)C)[C@@H]1C2` [anhydrotetracycline, reference compound], the “repression of transcription in prokaryotic organisms by the tetracycline analog (with revTetR)” value is recorded as “about 50 fold”.
